Reference: patent EP4178959B1, “NITROGEN HETEROCYCLIC CYTOKININ DERIVATIVES, COMPOSITIONS CONTAINING THESE DERIVATIVES AND USE THEREOF” (Univerzita Palackého v Olomouci, priority 2020, dated 2022)

What was measured:
[1] = test system: Arabidopsis thaliana; test: Effect on the root proliferation of Arabidopsis thaliana; type: in vivo, Arabidopsis thaliana (ecotype Columbia); conditions: for Concentration with highest activity: number of lateral roots; for Activity (%) [10^-8 mol.l^-1 Kin = 100%]: number of lateral roots (% of control), at concentration with highest activity
Protocol: Arabidopsis thaliana seeds (ecotype Columbia) were sterilized with 70% ethanol and 0.1% Triton X-100 and then washed with 70% ethanol containing 0.01% Triton X-100. Then the seeds were transferred to vertical square petri dishes (11 seeds per dish) on a solid medium consisting of MS (2.15 g/l), MES (0.5 g/l), sucrose (1 g/l), agar (11 g/l), buffered to pH 5.8, and various concentrations of tested compounds. The compounds were dissolved in DMSO, thus 0.05% DMSO was used as a control solution. After incubation for 3 days in darkness at 4°C, the seeds were germinated and grown in an environmental chamber (fluorescence light intensity 150 µE m^-2 s^-1, humidity 55%, 16 h day/8 h night, 22°C). […] The number of lateral roots was scored under a stereomicroscope. […] In addition, compounds with tetrahydropyranyl protection at N9 slightly increase the number of emerged lateral roots (Fig 3C). […] Table 6: […]

[2] = test system: Zea mays seedlings; test: Effect on development of Zea mays seedlings (hydroponic); type: in vivo, Zea mays cv. CELLUX; conditions: for Root dry mass (%) [4 x 10^-8 mol.l^-1 Kin = 100%] / Shoot dry mass (%) [10^-6 mol.l^-1 Kin = 100%]: at concentration with highest activity
Protocol: Maize seeds (Zea mays cv. CELLUX) were imbibed in tap water and germinated on a wetted filter paper. After 3 days, the germinated seedlings were transferred to aerated hydroponic tanks filled with Hoagland's nutrient solution. The plants were grown in an environmental chamber with 16 h light period (250 μE m^-2 s^-1) at 27°C and 8 h dark period at 20°C. Tested compounds diluted in DMSO were added to nutrient solution immediately when seedlings were nested in the tanks or after two additional days of cultivation. Control plants were grown in parallel with addition of corresponding amount of DMSO (up to 0.01%). Root and leaf tissues of ten plants were harvested at different time points after the application of the compounds, immediately frozen in liquid nitrogen and used for cytokinin content and transcript level analysis. Length of primary root and the first leaf were determined with ruler on sets of twelve plants, each cultivated in the independent tank (for every cytokinin application repeated ten times). Dry mass of root system and the aerial part was determined after cutting off the kernel and desiccation in dryer for two days at 60°C. […] Fig. 4) and up to 1 micromolar concentration when more seedlings were in the solution (approx. 50 seedlings per 1 liter; Fig. 5). […] Table 7: […]

[3] = Calcein AM cytotoxicity assay, B10A.4 cells; conditions: mouse; for CC50 at 72 h: b10a.4 macrophages
Protocol: (§1) All compound concentrations were examined in duplicates. […] Zero cytotoxicity is a basic prerequisite for the use of these substances in cosmetical applications. To assess the antitumor activity, the toxicity of new derivatives on panels containing cell lines of different histogenic and species origin was tested (Table 5). […] The compounds listed in Table 5 can be divided into 2 groups.
(§2) The first group contains "classical cytokinins" represented by 6-substituted purines (their effects are already known). The second group includes novel 2-fluoro-N6-substituted-9-(2-oxacycloalkyl)-9H-purine-6-amine derivatives. […] Low cytotoxicity (high IC50 value) of the compounds is the basic prerequisite for cosmetic and medical applications. […] Table 5: Cytotoxicity of novel compounds for different normal cell lines tested / IC50 (µmol/L)

[4] = Calcein AM cytotoxicity assay, BJ cells; conditions: human; for CC50 at 72 h: bj fibroblasts
Protocol: as §1, §2

[5] = Calcein AM cytotoxicity assay, NIH3T3 cells; conditions: mouse; for CC50 at 72 h: nih3t3 cells
Protocol: as §1, §2

[6] = test system: excised wheat leaf tips; test: Senescence inhibition on winter wheat leaf segments (chlorophyll retention); parameters: species or system Triticum aestivum cv. Hereward; conditions: for Emax: Triticum aestivum, foliar, read-out: Activity (%) [10^-4mol.l^-1 KTHP = 100%]; for Emax / Activity (%) [10^-4mol.l^-1 KTHP = 100%]: retention of chlorophyll in excised wheat leaf tips, 96 h in the dark, at concentration with highest activity; for Concentration with highest activity: retention of chlorophyll
Protocol: Seeds of winter wheat, Triticum aestivum cv. Hereward, were washed under running water for 24 hours and then sown on vermiculite soaked with the Knop's solution. They were placed in the grow chamber at 25 °C with a 16/8 h light period at 50 μmol.m^-2.s^-1. After 7 days, the first leaf was fully developed and the second leaf had started to grow. A tip section of the first leaf, approximately 35 mm long, was removed from 5 seedlings and trimmed slightly to a combined weight of 100 mg. The basal ends of the five leaf tips were placed in the wells of a microtiter polystyrene plate containing 150 μl of the solution of the tested compound each. The entire plate was inserted into a plastic box lined with paper tissues soaked with distilled water to prevent leaf sections from drying out. […] The absorbance of the extract was recorded at 665 nm. In addition, chlorophyll extracts from fresh leaves and leaf tips incubated in deionised water were measured. From the obtained data, the concetration with the highest activity was selected for each compound tested. Relative activity of the compound at this concentration was calculated (Table 7). […] The values shown are means of five replicates and the whole experiment was repeated twice. The compounds to be tested were dissolved in dimethylsulfoxide (DMSO) and the solution brought up to 10^-3 M with distilled water. […] The compounds listed in Table 7 can be divided into 2 groups. The first group contains "classical 6,9-disubstituted purines (KTHP as a control)" known in prior art. […] Table 9: […]

[7] = Cytotoxicity IC50, B10A.4, first column headed B10A.4

| Compound | Concentration with highest activity [1] | Activity (%) [10^-8 mol.l^-1 Kin = 100%] [1] | Root dry mass (%) [4 x 10^-8 mol.l^-1 Kin = 100%] [2] | Shoot dry mass (%) [10^-6 mol.l^-1 Kin = 100%] [2] | Concentration with highest activity ([2]; root dry mass) | Concentration with highest activity ([2]; shoot dry mass) | IC50 at 72 h [3, 7] [µM] | IC50 at 72 h [4] [µM] | IC50 at 72 h [5] [µM] | Emax [6] [%] | CC50 at 72 h [3, 7] [µM] | CC50 at 72 h [4] [µM] | CC50 at 72 h [5] [µM] | Concentration with highest activity [6] | Activity (%) [10^-4mol.l^-1 KTHP = 100%] [6] | CC50 at 72 h ([3]; Cytotoxicity IC50, B10A.4, second column headed B10A.4) [µM] | root elongation and lateral root proliferation (in words) ([2]; up to 1 µM concentration) | root elongation and branching (in words) ([1]; already in micromolar concentration) |
| --- | --- | --- | --- | --- | --- | --- | --- | --- | --- | --- | --- | --- | --- | --- | --- | --- | --- | --- |
| Oc1cc(Cl)cc(CNc2nc(F)nc3c2ncn3C2CCCO2)c1 (stereo not drawn) [Compound 27] | 10^-5 mol.l^-1 | 45.7 (± 6) % | 194.5 (± 18) % | 116.3 (± 7) % | 10^-7 mol.1^-1 | 10^-6 mol.1^-1 | – | – | – | – | – | – | – | – | – | – | – | – |
| Oc1cccc(CNc2nc(F)nc3c2ncn3C2CCCO2)c1 (stereo not drawn) [Compound 15, 2-Fluoro-6-[(3-hydroxybenzyl)amino]-9-(tetrahydrofuran-2-yl)-9H-purine] | 10^-5 mol.l^-1 | 24.8 (± 4) % | 201.4 (± 22) % | 124.3 (± 8) % | 10^-7 mol.1^-1 | 10^-6 mol.1^-1 | > 167 | > 167 | > 167 | 133 | – | – | – | – | – | – | – | – |
| CC(CO)CCNc1nc(F)nc2c1ncn2C1CCCCO1 (stereo not drawn) [Compound 72] | 10^-6 mol.l^-1 | 68.5 (± 2) % | 161.3 (± 21) % | 104.8 (± 7) % | 10^-7 mol.1^-1 | 10^-6 mol.1^-1 | – | – | – | – | > 167 | > 167 | > 167 | 10^-4 mol.l^-1 | 103 (± 7) % | – | – | – |
| C/C(=C/CNc1nc(F)nc2c1ncn2C1CCCCO1)CO (stereo not drawn) [Compound 71] | 10^-6 mol.l^-1 | 71.8 (± 7) % | 172.5 (± 14) % | 111.1 (± 6) % | 10^-7 mol.1^-1 | 10^-6 mol.1^-1 | – | – | – | – | > 167 | > 167 | > 167 | 10^-4 mol.l^-1 | 113 (± 18) % | – | – | – |
| Fc1nc(NCc2ccccc2)c2ncn(C3CCCCO3)c2n1 (stereo not drawn) [Compound 64, 2-Fluoro-6-benzylamino-9-(tetrahydro-2H-pyran-2-yl)-9H-purine] | 10^-6 mol.l^-1 | 61.2 (± 3) % | 168.9 (± 16) % | 108.9 (± 8) % | 10^-7 mol.1^-1 | 10^-6 mol.1^-1 | 121 | 124 | 128 | 110 | – | – | – | – | – | – | – | – |
| CC(C)=CCNc1nc(F)nc2c1ncn2C1CCCO1 (stereo not drawn) [Compound 13] | – | – | – | – | – | – | – | – | – | – | > 167 | > 167 | > 167 | 10^-4 mol.l^-1 | 109.8 (± 13) % | > 167 | does not inhibit root elongation and lateral root proliferation | – |
| COc1cccc(CNc2nc(F)nc3c2ncn3C2CCCO2)c1 (stereo not drawn) [Compound 18] | 10^-5 mol.l^-1 | 28.6 (± 2) % | 240.6 (± 22) % | 148.2 (± 8) % | 10^-7 mol.1^-1 | 10^-6 mol.1^-1 | – | – | – | – | > 167 | > 167 | > 167 | 10^-4 mol.l^-1 | 175.8 (± 10) % | – | – | – |
| COc1ccccc1CNc1nc(F)nc2c1ncn2C1CCCO1 (stereo not drawn) [Compound 17, 2-Fluoro-6-[(2-methoxybenzyl)amino]-9-(tetrahydrofuran-2-yl)-9H-purine] | 10^-5 mol.l^-1 | 30.7 (± 7) % | 241.5 (± 19) % | 139.8 (± 7) % | 10^-7 mol.1^-1 | 10^-6 mol.1^-1 | > 167 | > 167 | > 167 | 104 | – | – | – | – | – | – | – | – |
| COc1ccc(OC)c(CNc2nc(F)nc3c2ncn3C2CCCO2)c1 (stereo not drawn) [Compound 37] | – | – | – | – | – | – | – | – | – | – | > 167 | > 167 | > 167 | 10^-4 mol.l^-1 | 121.8 (± 17) % | – | – | – |
| COc1cccc(CNc2ncnc3nc[nH]c23)c1 [6-(3-methoxybenzylamino)purine, reference compound] | – | – | – | – | – | – | – | – | – | – | – | – | – | – | – | – | – | significantly inhibits root elongation and branching |
| CC(C)=CCNc1nc(F)nc2c1ncn2C1CCCCO1 (stereo not drawn) [Compound 69] | – | – | – | – | – | – | – | – | – | – | 146 | 153 | 142 | 10^-4 mol.l^-1 | 108 (± 13) % | – | – | – |
| Cc1cc(O)cc(CNc2nc(F)nc3c2ncn3C2CCCO2)c1 (stereo not drawn) [Compound 52] | – | – | – | – | – | – | – | – | – | – | > 167 | > 167 | > 167 | 10^-4 mol.l^-1 | 23 (± 1) % | – | – | – |
| Oc1cc(F)cc(CNc2nc(F)nc3c2ncn3C2CCCO2)c1 (stereo not drawn) [Compound 28] | 10^-5 mol.l^-1 | 49.3 (± 9) % | 190.2 (± 20) % | 111.8 (± 6) % | 10^-7 mol.1^-1 | 10^-6 mol.1^-1 | – | – | – | – | – | – | – | – | – | – | – | – |
| Oc1ccc(CNc2nc(F)nc3c2ncn3C2CCCO2)cc1 (stereo not drawn) [Compound 16, 2-Fluoro-6-[(4-hydroxybenzyl)amino]-9-(tetrahydrofuran-2-yl)-9H-purine] | – | – | – | – | – | – | > 167 | > 167 | > 167 | 110 | – | – | – | – | – | – | – | – |
| COc1ccc(CNc2nc(F)nc3c2ncn3C2CCCCO2)cc1 (stereo not drawn) [Compound 68, 2-Fluoro-6-[(4-methoxybenzyl)amino]-9-(tetrahydro-2H-pyran-2-yl)-9H-purine] | – | – | – | 118.6 (± 9) % | – | 10^-6 mol.1^-1 | > 167 | > 167 | > 167 | 155 | – | – | – | – | – | – | – | – |
